From US20030114445A1, “N3-substituted 6-anilinopyrimidines and methods to treat-Gram-positive bacterial and mycoplasmal infections” (priority 2001, published 2003)
In brackets after ≈: the same amount, converted by molar mass. Read-outs that look alike come from different tables or passages of the source.

Tests used:
[1] = test system: S. aureus (Smith strain); test: Efficacy, ip dosing of mice infected with S. aureus; assay type: in vivo; conditions: suspensions in saline, 5 animals, FIG. 2
Source text: Compounds 12, 19, 26, and 29 were given by the intraperitoneal (ip) route as suspensions in saline to mice previously infected with S. aureus (Smith strain). Vancomycin was used as a positive drug control and saline was used as a negative vehicle control.

[2] = biological target: B.subtilis pol IIIC (Bacillus subtilis, UniProt P13267); test: biochemical
Method: DNA pol activity was assayed as described in Barnes et al., Nuc. Acids Res., 6:1203-19 (1979), using activated “nicked” calf-thymus DNA as template primer, 10 pM [^3H-methyl]-dTTP as the labelled dNTP substrate, and dATP, dCTP, and dGTP at 25 μM each.
Inhibitory activity of the compounds is determined by measuring the ability of the agent to inhibit enzyme-catalyzed incorporation of [^3H]-dTMP into nicked calf thymus DNA in the absence of the competitor dGTP or dATP (“truncated assay”) (see G. E. Wright and N. C. Brown, Inhibition of Bacillus subtilis DNA Polymerase III by Arylhydrazinopyrimidines: Novel Properties of 2-Thiouracil Derivatives, Biochim. Biophys. Acta 432:37-48 (1976)). Purified pol IIIC is added to a buffered solution containing Mg^2+, DTT, glycerol, nicked calf thymus DNA, saturating concentrations of dATP, dCTP, dTTP and [^3H]-dTTP. Reaction mixtures are incubated at 30° C. for 10 minutes, quenched and filtered, and radioactivity in the acid-insoluble material measured by scintillation counting. Experiments are done in triplicate. Inhibitors are assayed by addition of several dilutions of a stock solution of inhibitor (DMSO or water, depending on solubility) before enzyme addition. […] The truncated assay, i.e. exclusion of the competitive substrate dGTP or dATP, depending upon whether the compound is a uracil derivative or an isocytosine derivative, respectively, allows for the direct determination of apparent inhibitor constants (K,) in this assay system.

[3] = test system: E. fecium; test: Inhibition of bacterial growth on agar plates (MIC); assay type: cell-based; conditions: 37° C., 24 hours
Method: (§1) Each compound is assayed against a panel of Bacillus, Enterococcus and Staphylococcus, and a Gram-negative bacterium Escherichia coli as negative control, grown in appropriate plate media solidified with 1.3% agar-agar. Stock solutions of the compounds in dimethylsulfoxide or water, depending on solubility, are added to sterile medium at a temperature of 60° C. […] One tenth mL of diluted bacteria containing 500-1000 colony-forming units (CFU) are plated and spread, and the plates incubated at 37° C. for 24 hours. MIC (minimum inhibitory concentration) is equivalent to the lowest concentration at which growth, i.e. colony formation, is not observed.

[4] = test system: E. fecalis; test: as above; assay type: cell-based; conditions: 37° C., 24 hours
Method: as §1

[5] = test system: B. subtilis; test: as above; assay type: cell-based; conditions: Bacillus subtilis, 37° C., 24 hours
Method: as §1

[6] = test system: S.aureus (Smith); test: as above; assay type: cell-based; conditions: Staphylococcus aureus, 37° C., 24 hours
Method: as §1

B.subtilis pol IIIC, sequence (P13267 whole entry): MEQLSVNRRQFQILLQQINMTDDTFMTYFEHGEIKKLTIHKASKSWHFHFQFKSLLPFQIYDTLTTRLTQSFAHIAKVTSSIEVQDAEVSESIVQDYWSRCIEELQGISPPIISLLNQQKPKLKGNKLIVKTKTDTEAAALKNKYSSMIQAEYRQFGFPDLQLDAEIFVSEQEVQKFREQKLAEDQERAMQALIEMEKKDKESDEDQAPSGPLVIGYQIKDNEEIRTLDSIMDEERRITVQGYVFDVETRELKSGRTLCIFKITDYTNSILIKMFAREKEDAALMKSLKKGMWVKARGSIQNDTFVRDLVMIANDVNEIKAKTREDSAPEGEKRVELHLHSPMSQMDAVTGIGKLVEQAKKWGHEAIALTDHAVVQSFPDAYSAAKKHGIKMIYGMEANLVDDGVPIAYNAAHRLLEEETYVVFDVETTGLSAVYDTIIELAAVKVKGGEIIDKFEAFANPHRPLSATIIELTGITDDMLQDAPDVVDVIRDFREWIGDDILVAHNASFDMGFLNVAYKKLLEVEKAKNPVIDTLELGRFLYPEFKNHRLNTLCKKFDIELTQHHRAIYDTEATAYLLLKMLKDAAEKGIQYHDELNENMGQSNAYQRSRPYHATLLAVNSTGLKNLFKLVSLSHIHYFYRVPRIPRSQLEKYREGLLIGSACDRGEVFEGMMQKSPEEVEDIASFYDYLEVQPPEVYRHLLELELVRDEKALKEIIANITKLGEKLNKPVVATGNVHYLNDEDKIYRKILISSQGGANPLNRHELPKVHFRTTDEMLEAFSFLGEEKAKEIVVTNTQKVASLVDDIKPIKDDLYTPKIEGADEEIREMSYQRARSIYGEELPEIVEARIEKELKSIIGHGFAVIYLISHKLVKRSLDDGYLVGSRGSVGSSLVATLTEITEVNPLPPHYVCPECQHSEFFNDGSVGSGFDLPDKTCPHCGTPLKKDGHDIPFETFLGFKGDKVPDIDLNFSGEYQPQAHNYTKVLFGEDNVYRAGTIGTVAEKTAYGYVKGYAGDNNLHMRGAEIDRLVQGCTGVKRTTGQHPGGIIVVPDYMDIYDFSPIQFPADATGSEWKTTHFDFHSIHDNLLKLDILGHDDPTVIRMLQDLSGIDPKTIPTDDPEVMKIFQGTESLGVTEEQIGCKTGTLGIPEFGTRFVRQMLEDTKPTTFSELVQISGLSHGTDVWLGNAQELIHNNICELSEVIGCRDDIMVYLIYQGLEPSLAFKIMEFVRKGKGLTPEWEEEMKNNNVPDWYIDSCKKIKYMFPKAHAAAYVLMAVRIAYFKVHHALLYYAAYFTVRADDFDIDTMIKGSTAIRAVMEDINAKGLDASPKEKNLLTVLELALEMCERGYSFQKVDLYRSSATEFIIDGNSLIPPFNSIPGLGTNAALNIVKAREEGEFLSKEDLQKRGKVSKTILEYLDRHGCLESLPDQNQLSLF

Structure (SMILES)	animals protected [1]	Ki [2]	MIC [3]	MIC [4]	MIC [5]	MIC [6]	Ki ([2]; truncated assay, apparent inhibitor constant, read-out: K1 B.subtilis pol IIIC)
CCc1cc(Nc2cc(=O)n(CCCCCO)c(=O)[nH]2)ccc1C [Compound 26, 3-(5-Hydroxypentyl)-6-(3-ethyl-4-methylanilino)uracil]	1 of the 5						
CCc1cc(Nc2cc(=O)n(CCCC(O)CO)c(=O)[nH]2)ccc1C (stereo not drawn) [Compound 23, 3-(4,5-Dihydroxypentyl)-6-(3-ethyl-4-methylanilino)uracil]		96 nM	20 µg/mL (≈ 57.6 µM)	20 µg/mL (≈ 57.6 µM)	10 µg/mL (≈ 28.8 µM)	20 µg/mL (≈ 57.6 µM)	
CCc1cc(Nc2cc(=O)n(CCCCCN3CC=C(c4ccc(Cl)cc4)CC3)c(=O)[nH]2)ccc1C [Compound 76, 3-{5-[1-(4-(4-chlorophenyl)-1,2,3,6-tetrahydropyridinyl)]pentyl}-6-(3-ethyl-4-methylanilino)uracil]		87 nM	80 µg/mL (≈ 158 µM)	80 µg/mL (≈ 158 µM)	5 µg/mL (≈ 9.86 µM)	5 µg/mL (≈ 9.86 µM)	
CCc1cc(Nc2cc(=O)n(CCCCN3CCN(c4ncc(C(=O)OC)c(C(F)(F)F)n4)CC3)c(=O)[nH]2)ccc1C [Compound 62, 3-{4-[4-(4-trifluoromethyl-5-methoxycarbonyl-2-pyrimidinyl)-1-piperazinyl]butyl}-6-(3-ethyl-4-methylanilino)uracil]		550 nM	80 µg/mL (≈ 136 µM)	80 µg/mL (≈ 136 µM)	80 µg/mL (≈ 136 µM)	80 µg/mL (≈ 136 µM)	
CCc1cc(Nc2cc(=O)n(CCCCN3CCN(c4ncccn4)CC3)c(=O)[nH]2)ccc1C [Compound 45, 3-{4-[4-(2-pyrimidinyl)piperazinyl]butyl}-6-(3-ethyl-4-methyylanilino)uracil]			5 µg/mL (≈ 10.8 µM)	5 µg/mL (≈ 10.8 µM)	2.5 µg/mL (≈ 5.39 µM)	10 µg/mL (≈ 21.6 µM)	43 nM
CCc1cc(Nc2cc(=O)n(CCCCN3CCN(c4nc(C)cc(C(=O)O)n4)CC3)c(=O)[nH]2)ccc1C [Compound 60, 3-{4-[4-(6-methyl-4-carboxy-2-pyrimidinyl)-1-piperazinyl]butyl}-6-(3-ethyl-4-methylanilino)uracil]		16 nM	40 µg/mL (≈ 76.7 µM)	40 µg/mL (≈ 76.7 µM)	40 µg/mL (≈ 76.7 µM)	40 µg/mL (≈ 76.7 µM)	
CCc1cc(Nc2cc(=O)n(CCCCCNC[C@H]3CCNC3)c(=O)[nH]2)ccc1C [Compound 63, 3(S)-{5-[(3-pyrrolidinyl)methylamino]pentyl}-6-(3-ethyl-4methylanilino)uracil]		112 nM	80 µg/mL (≈ 193 µM)	80 µg/mL (≈ 193 µM)	20 µg/mL (≈ 48.4 µM)	40 µg/mL (≈ 96.7 µM)	
CCc1cc(Nc2cc(=O)n(CCCCCn3cnc4c(=O)n(C)c(=O)n(C)c43)c(=O)[nH]2)ccc1C [Compound 67, 3-{5-[9-(1,3-dimethyl-2,6-dioxopurinyl)]pentyl}-6-(3-ethyl-4-methylanilino)uracil]		60 nM	10 µg/mL (≈ 20.3 µM)	20 µg/mL (≈ 40.5 µM)	2.5 µg/mL (≈ 5.07 µM)	10 µg/mL (≈ 20.3 µM)	
CCc1cc(Nc2cc(=O)n(C/C=C/C(=O)OC)c(=O)[nH]2)ccc1C [Compound 7, 3-[3-(Methoxycarbonyl)-2-propenyl]-6-(3-ethyl-4-methylanilino)uracil]		320 nM	5 µg/mL (≈ 14.6 µM)	20 µg/mL (≈ 58.2 µM)	2.5 µg/mL (≈ 7.28 µM)	10 µg/mL (≈ 29.1 µM)	
CCc1cc(Nc2cc(=O)n(CCCCCN3CCc4c([nH]c5ccc(OC)cc45)C3)c(=O)[nH]2)ccc1C [Compound 69]		109 nM	20 µg/mL (≈ 38.8 µM)	20 µg/mL (≈ 38.8 µM)	5 µg/mL (≈ 9.7 µM)	10 µg/mL (≈ 19.4 µM)	
CCCCC1(O)CCN(CCCCCn2c(=O)cc(Nc3ccc(C)c(CC)c3)[nH]c2=O)CC1 [Compound 71, 3-{5-[1-(4-hydroxy-4-butylpiperidinyl)]pentyl}-6-(3-ethyl-4-methylanilino)uracil]		2100 nM	10 µg/mL (≈ 21.2 µM)	10 µg/mL (≈ 21.2 µM)	5 µg/mL (≈ 10.6 µM)	10 µg/mL (≈ 21.2 µM)	
CCc1cc(Nc2cc(=O)n(CCCCCNc3ncc(C#N)c(N)n3)c(=O)[nH]2)ccc1C [Compound 66, 3-{5-[(4-amino-5-cyano-2-pyrimidinyl)amino]pentyl}-6-(3-ethyl-4-methylanilino)uracil]		39500 nM	80 µg/mL (≈ 178 µM)	80 µg/mL (≈ 178 µM)	80 µg/mL (≈ 178 µM)	80 µg/mL (≈ 178 µM)	
CCc1cc(Nc2cc(=O)n(CCCCN3CCN(Cc4ccccc4)CC3)c(=O)[nH]2)ccc1C [Compound 41, 3-[4-(4-Benzylpiperazino)butyl]-6-(3-ethyl-4-methylanilino)uracil]		34 nM	5 µg/mL (≈ 10.5 µM)	10 µg/mL (≈ 21 µM)	5 µg/mL (≈ 10.5 µM)	> 20 µg/mL	
CCc1cc(Nc2cc(=O)n(CCCCN3CCN(c4ccc(C(F)(F)F)cc4[N+](=O)[O-])CC3)c(=O)[nH]2)ccc1C [Compound 64, 3-{4-[4-(2-nitro-4-trifluoromethylphenyl)-1-piperazinyl]butyl}-6-(3-ethyl-4-methylanilino)uracil]		58800 nM	80 µg/mL (≈ 139 µM)	80 µg/mL (≈ 139 µM)	80 µg/mL (≈ 139 µM)	80 µg/mL (≈ 139 µM)	
CCc1cc(Nc2cc(=O)n(CCCCNCCCCn3cc(C(=O)O)c(=O)c4cc(F)c(Cl)cc43)c(=O)[nH]2)ccc1C [Compound 74, 3-{4-[4-(3-carboxy-4-oxo-6-fluoro-7-chloroquinoline-1-yl)butylamino]butyl}-6-(3-ethyl-4-methylanilino)uracil]		63 nM	20 µg/mL (≈ 32.7 µM)	20 µg/mL (≈ 32.7 µM)	20 µg/mL (≈ 32.7 µM)	20 µg/mL (≈ 32.7 µM)	
CCc1cc(Nc2cc(=O)n(CCCCCN3CC=C(c4cccs4)CC3)c(=O)[nH]2)ccc1C [Compound 72, 3-{5-[1-(4-(thiophen-2-yl)-1,2,3,6-tetrahydropyridinyl)]pentyl}-6-(3-ethyl-4-methylanilino)uracil]		77 nM	40 µg/mL (≈ 83.6 µM)	20 µg/mL (≈ 41.8 µM)	5 µg/mL (≈ 10.4 µM)	20 µg/mL (≈ 41.8 µM)	
CCc1cc(Nc2cc(=O)n(CCCCCCCCO)c(=O)[nH]2)ccc1C [Compound 18, 3-(8-Hydroxyoctyl)-6-(3-ethyl-4-methylanilino)uracil]		26 nM	2.5 µg/mL (≈ 6.69 µM)	2.5 µg/mL (≈ 6.69 µM)	1.25 µg/mL (≈ 3.35 µM)	2.5 µg/mL (≈ 6.69 µM)	
CCc1cc(Nc2cc(=O)n(CCCCO)c(=O)[nH]2)ccc1C [HB-EMAU, 3-(4-hydroxybutyl)-6-(3-ethyl-4-methylanilino)uracil, reference compound]		70 nM	5 µg/mL (≈ 15.8 µM)	5 µg/mL (≈ 15.8 µM)	< 1.25 µg/mL	5 µg/mL (≈ 15.8 µM)	
CCc1cc(Nc2cc(=O)n(CCN3CCN(C(=O)c4ccccc4)CC3)c(=O)[nH]2)ccc1C [Compound 39, 3-[2-(4-Benzoylpiperazino)ethyl]-6-(3-ethyl-4-methylanilino)uracil]		77 nM	5 µg/mL (≈ 10.8 µM)	10 µg/mL (≈ 21.7 µM)	2.5 µg/mL (≈ 5.42 µM)	10 µg/mL (≈ 21.7 µM)	
CCc1cc(Nc2cc(=O)n(CCCCCNC[C@@H]3CCN(C(=O)OC(C)(C)C)C3)c(=O)[nH]2)ccc1C [Compound 79, 3(S)-{5-[(N-tert-butoxycarbonylpyrrolidin-3-yl)methylamino]pentyl}-6-(3-ethyl-4-methylanilino)uracil]		120 nM	40 µg/mL (≈ 77.9 µM)	40 µg/mL (≈ 77.9 µM)	20 µg/mL (≈ 38.9 µM)	20 µg/mL (≈ 38.9 µM)	
CCc1cc(Nc2cc(=O)n(CCN(CC)CC)c(=O)[nH]2)ccc1C [Compound 14, 3-[2-(N,N-diethylamino)ethyl]-6-(3-ethyl-4-methylanilino)uracil]		530 nM	20 µg/mL (≈ 58.1 µM)	20 µg/mL (≈ 58.1 µM)	10 µg/mL (≈ 29 µM)	20 µg/mL (≈ 58.1 µM)	
CCc1cc(Nc2cc(=O)n(CCCCN3CCN(c4ncc(C(=O)O)c(C(F)(F)F)n4)CC3)c(=O)[nH]2)ccc1C [Compound 65, 3-{4-[4-(4-trifluoromethyl-5-carboxy-2-pyrimidinyl)-1-piperazinyl]butyl}-6-(3-ethyl-4-methylanilino)uracil]		113 nM	40 µg/mL (≈ 69.5 µM)	80 µg/mL (≈ 139 µM)	80 µg/mL (≈ 139 µM)	80 µg/mL (≈ 139 µM)	
CCc1cc(Nc2cc(=O)n(CCCCC#N)c(=O)[nH]2)ccc1C [Compound 20, 3-(4-Cyanobutyl)-6-(3-ethyl-4-methylanilino)uracil]		94 nM	5 µg/mL (≈ 15.3 µM)	2.5 µg/mL (≈ 7.66 µM)	2.5 µg/mL (≈ 7.66 µM)	2.5 µg/mL (≈ 7.66 µM)	
